This data set is described as follows: Stability study of green tea catechins: incubation in Na-Pi buffer pH 7.4 at 37° C., HPLC. It counts as physicochemical. The method, then:
Samples were prepared according to the following method. Briefly, each sample was treated with acetic acid (30% final concentration) for 30 min and then added to an aqueous solution containing 10% acetonitrile, 0.5 mg/mL EDTA and 0.5 mg/mL ascorbic acid. The mix was then centrifuged for 30 min at 14′000×g and the supernatant analysed by HPLC. Following this protocol allows the complete recovery of all catechins.
Green tea catechins were determined by reverse phase HPLC using an analytical method based on the ISO FDIS 14502-2 method. The HPLC system used was a 1100 series Hewlett-Packard (Geneva, Switzerland) model equipped with an ultraviolet-visible photodiode array and a fluorimetric detector. Catechins were detected by UV absorption at 280.4 nm except for catechins and epicatechin that were detected by fluorescence (excitation: 280 nm; emission: 310 nm). Samples (10 μl) were separated on a Zorbax RX—C18 column (4.6 mm internal diameter×250 mm length, Agilent technologies). Flow rate was 1.0 mL/min.
Sample concentration of green tea catechins (C, EC, EgC, EgCg, ECg) were calculated based on the corresponding calibration curve and reported as % of the initial value (sample at t0). Since caffeine, endogenous to green tea samples, is stable under the selected assay conditions, it was used as internal standard for all calculations. […]

For `O=C1O[C@H]([C@@H](O)CO)C(O)=C1O` [vitamin C, ascorbic acid], for the setting “0.2 mM, at least for 2 h of incubation, data not shown”, the protection of catechins entry was “a certain protection”. Besides, where the note is “stabilisation during 6 h, GTE 0.1%, pH 7.4, 37° C”, the “vitamin C concentration at which the plateau of stabilisation is reached” value came out at 2.5 mM.
